Results on 5 compounds are retold here after US20060276523A1 (priority 2003, published 2006).

SMILES strings stand for the structures. Read-outs that look alike come from different tables or passages of the source. Where only a bound is given, the exact number is not on record here.

For assay [1], the system named is isolated rabbit thoracic aorta preparations. The assay is described as follows: Studies on vascular tone: vasorelaxation of noradrenaline-precontracted aortic rings. The settings on record: rabbit aortic rings precontracted with noradrenaline 1 μM; for IC50: functional endothelium, read-out: IC50 (μM) ± sem (vasorelaxation). The assay is classed as cell-based. The method, then:
The ability of the nitroderivatives of ARB to induce vasorelaxation in comparison to native ARB, was tested in vitro in isolated rabbit thoracic aorta preparations (Wanstall J. C. et al., Br. J. Pharmacol., 134:463-472, 2001). Male New Zealand rabbits were anaesthetized with thiopental-Na (50 mg/kg, iv), sacrificed by exsanguinations and then the thorax was opened and the aorta dissected. Aortic ring preparations (4 mm in length) were set up in physiological salt solution (PSS) at 37° C. in small organ chambers (5 ml). The composition of PSS was (mM): NaCl 130, NaHCO3 14.9, KH2PO4 1.2, MgSO4 1.2, HEPES 10, CaCl2, ascorbic acid […] and glucose 1.1 (95% O2/5% CO2; pH 7.4). Each ring was mounted under 2 g passive tension. Isometric tension was recorded with a Grass transducer (Grass FT03) attached to a BIOPAC MP150 System. Preparations were allowed to equilibrate for 1 h, and then contracted submaximally with noradrenaline (NA, 1 μM) and, when the contraction was stable, acetylcholine (ACh, 10 μM) was added. A relaxant response to ACh indicated the presence of a functional endothelium. […] When a stable precontraction was reached, a cumulative concentration-response curve to either of the vasorelaxant agents was obtained in the presence of a functional endothelium. Each arterial ring was exposed to only one combination of inhibitor and vasorelaxant. Moreover, the effect of the soluble guanylyl cyclase inhibitor ODQ (1-H-(1,2,4)-oxadiazol(4,3-a)quinoxalin-1-one) on vasorelaxation elicited by the compounds was examined preincubating the aortic rings with ODQ (10 μM) for 20 min.
Responses to relaxing agents are expressed as a percentage of residual contraction and plotted against concentration of test compound. IC50 values (where IC50 is the concentration producing 50% of the maximum relaxation to the test compound) were interpolated from these plots.
During the experimental period, the plateau obtained with NA was stable without significant spontaneous loss of contraction in the aortic rings.

The subject of assay [2] is spontaneously hypertensive rats (SHRs). The assay is described as follows: Antihypertensive activity in conscious spontaneously hypertensive rats (telemetry). Format: in vivo. The following applies: SHR; for Systolic blood pressure (mmHg), 30 min: 30 min after dosing; for Systolic blood pressure (mmHg), 30 min / Systolic blood pressure (mmHg), 12 hrs / Systolic blood pressure (mmHg), 24 hrs: losartan 10 mg/kg po, EX. 2 12 mg/kg po (equimolar); for Systolic blood pressure (mmHg), 12 hrs: 12 hrs after dosing; for Systolic blood pressure (mmHg), 24 hrs: 24 hrs after dosing; for Systolic blood pressure (mmHg), Baseline: groups losartan 10 mg/kg po, EX. 2 12 mg/kg po. The source says:
Systolic blood pressure (SBP) and heart rate were monitored by telemetry at different time points after dosing.

In a further assay the test system is RAW 264.7 macrophages. Description: Inhibition of LPS-induced nitrite accumulation (Griess reaction). Format: cell-based. The settings on record: for Nitrite (% vs vehicle): 25 μM, LPS 1 μg/ml for 16 hrs, RAW 264.7. The method, then: The experiments were performed using RAW 264.7 monocyte macrophage cell line. Cells were stimulated in the presence of lipopolysaccharide (LPS) (1 μg/ml) for 16 hrs. At the end of the incubation, the culture media were collected and analyzed for nitrite content using a standard Griess reaction.
The results reported in Table 2 are expressed as % of nitrite content for each treatment vs. LPS-treated samples.

The next assay relates to human platelets. Description: Antiplatelet activity: U46619-induced platelet aggregation in platelet rich plasma (Born method). Format: cell-based. The following applies: 2 min, human PRP, aggregating agent U46619, incubation 2 min at 37° C., read-out: Platelet aggregation (PRP) (incubation time: 2 min) IC50. The method, then: Aggregating agent used was U46619, a TxA2 analog, based on the evidence that this agonist is sensitive to the effects of nitric oxide. Compounds were incubated at 37° C. for 2 min before adding the aggregating agent. Aggregation was followed for 5 min and the maximal amplitude (cm) was measured. DMSO (0.05% final concentration) was used as vehicle. Compounds were tested at concentrations ranging from 10 to 100 μM.

For orientation: IC50 means the concentration at which inhibition is half-maximal.

With `CCCCc1nc(Cl)c(COC(=O)CCCCCO[N+](=O)[O-])n1Cc1ccc(-c2ccccc2-c2nnn[nH]2)cc1` [EX. 5, 2-butyl-4-chloro-1-[[2′-(H-tetrazol-5-yl)[1,1′-biphenyl]-4-yl]methyl]-1H-imidazole-5-methanol 6-nitrooxyhexanoic acid ester], the IC50 in assay [1] was 18 ± 6 µM.
Turning to `CCCCc1nc(Cl)c(CO)n1Cc1ccc(-c2ccccc2-c2nn[nH]n2)cc1` [Losartan, reference compound], in assay [2] (daily oral dose for 3 days), the “Systolic blood pressure (mmHg), 30 min” value was found to be 133 mmHg; the “Systolic blood pressure (mmHg), 12 hrs” value is recorded as 135 mmHg; the “Systolic blood pressure (mmHg), 24 hrs” value is given as 136 mmHg. Further, the “Systolic blood pressure (mmHg), Baseline” value in assay [2] is reported as 143 mmHg. Moreover, the IC50 in assay [1] (Oryctolagus cuniculus) is more than 100 µM. The “relaxation of aortic rings (in words)” value in assay [1] is “did not produce relaxation at any of the concentration tested”. In addition, in the assay on RAW 264.7 macrophages, the “Nitrite (% vs vehicle)” value turned out to be 99 ± 9 % vs vehicle.
With `CCCCc1nc(Cl)c(COC(=O)c2ccc(CO[N+](=O)[O-])cc2)n1Cc1ccc(-c2ccccc2-c2nn[nH]n2)cc1` [EX. 1, 2-butyl-4-chloro-1-[[2′-(1H-tetrazol-5-yl)[1,1′-biphenyl]-4-yl]methyl]-1H-imidazole-5-methanol 4-(nitrooxymethyl) benzoic acid ester], the values for the IC50 (in assay [1] (Oryctolagus cuniculus); in the assay on human platelets) were 33 ± 12 µM and 5 µM, respectively.
With `CCCCc1nc(Cl)c(COC(=O)CCCO[N+](=O)[O-])n1Cc1ccc(-c2ccccc2-c2nn[nH]n2)cc1` [EX. 2, 2-butyl-4-chloro-1-[[2′-(1H-tetrazol-5-yl)[1,1′-biphenyl]-4-yl]methyl]-1H-imidazole-5-methanol 4-nitrooxybutanoic acid ester], in assay [2] (daily oral dose for 3 days), the “Systolic blood pressure (mmHg), 30 min” value is recorded as 115 mmHg; the “Systolic blood pressure (mmHg), 12 hrs” value is 126 mmHg; the “Systolic blood pressure (mmHg), 24 hrs” value amounted to 128 mmHg; the “reduction in blood pressure levels over the treatment period (in words)” value is “able to induce a clear reduction in blood pressure levels”. For the same compound, in assay [2], the “Systolic blood pressure (mmHg), Baseline” value worked out at 143 mmHg. Besides, in assay [1] (Oryctolagus cuniculus), the IC50 was 15 ± 3 µM. Besides, the IC50 in the assay with human platelets is 11 µM.
For the compound `CCCCc1nc(Cl)c(COC(=O)c2cccc(CO[N+](=O)[O-])c2)n1Cc1ccc(-c2ccccc2-c2nn[nH]n2)cc1` [EX. 4, 2-butyl-4-chloro-1-[[2′-(1H-tetrazol-5-yl)[1,1′-biphenyl]-4-yl]methyl]-1H-imidazole-5-methanol 3-(nitrooxymethyl) benzoic acid ester], the IC50 in assay [1] (Oryctolagus cuniculus) turned out to be 54 ± 16 µM. Also, the “Nitrite (% vs vehicle)” value with RAW 264.7 macrophages is 61 ± 3 % vs vehicle. Besides, the “inhibition of accumulation of nitrites induced by LPS (in words)” value with RAW 264.7 macrophages (RAW 264.7, LPS) is on record as “able to inhibit the accumulation of nitrites induced by LPS”.
